# Data reported in patent US20210188773A1, “NOVEL POLYMOPHS OF S-NITROSOCAPTOPRIL (CAP-NO) AND ITS PROCESS FOR PREPARATION” (FUZHOU UNIVERSITY, priority 2018, published 2021).
# System: Pulmonary hypertension (PAH) rats
# Experiment: Effect on monocrotaline (MCT) pulmonary hypertension (PAH) model rats
# Type: in vivo, rat
# Description: Pulmonary hypertension (PAH) rats, being monocrotaline (MCT) intraperitoneal injected, were divided into 4 groups: control group (n=7), 50 mg/kg captopril group (n=7), 10 mg/kg S-nitrosocaptopril group (n=7), 50 mg/kg S-nitrosocaptopril group (n=7) and health group (n=9). Rats of all groups were orally administered once a day for 30 days.
smiles,measurement,setting,value
"C[C@H](CS)C(=O)N1CCC[C@H]1C(=O)O [captopril, Captopril]",average pleural effusion of dead rats,50 mg/kg oral once a day,3.3 mL
same,mean right ventricular mass index (RVMI),50 mg/kg oral once a day,53.8%
same,number of rats remaining (from 7),50 mg/kg oral once a day for 30 days,3
